# From article PMC11374660, “The novel family of Warbicin® compounds inhibits glucose uptake both in yeast and human cells and restrains cancer cell proliferation” (Frontiers in Oncology, 2024)
# Legend:
# [1] = tested on: A549 lung adenocarcinoma cells; design: method as in PMID 22689530; conditions: previously reported; ref [67]; cited from earlier work
# yeast tps1Δ strain = assay: Growth (rescue) of the yeast tps1Δ strain on galactose with or without glucose; format: cell-based, S. cerevisiae; conditions: 100 µM, 2.5 mM glucose
# Method: Growth curves were made by measuring OD595 in a 96-well plate using the Multiskan™ FC Microplate Photometer (Thermo Fisher Scientific). Typically, for tps1Δ rescue experiments, cells were (pre)grown in Complete Synthetic medium containing 110 mM galactose. Compounds were always added 10 min prior to glucose addition to ensure maximal interaction between the cells and compounds. Cells originating from the preculture were harvested, washed in medium without sugar, after which they were resuspended to an OD of 0.1 in 200 µL of the appropriate medium. At least three technical replicates were included per condition. OD595 was measured at 30°C every 30 min with a 10-min shaking interval.
# [2] = tested on: A549 lung adenocarcinoma cells; assay: Proliferation of A549 lung adenocarcinoma cells; format: cell-based, human; conditions: for Selected from primary screen for growth inhibition of A549 cells at 50 µM: RPMI 1 mM glucose; for relative potency in reducing maximal growth rate of A549 cells: 1 mM glucose, 6.25-50 µM; for Selected for having an IC50 ratio (10 mM glucose : 1 mM glucose) of A549 growth higher than WBC-A: ratio of IC50 on 10 mM and 1 mM glucose, compared to WBC-A
# Method: (§1) For both adherent A549 and MCF10A H-RAS^V12 cell lines, growth curves were established using the IncuCyte® ZOOM technology. By collecting phase contrast images, the IncuCyte® software provides a calculated confluency percentage from which growth curves can be deducted. The cell number/density was measured by calculating the confluency of phase objects (cells) sticking on the bottom of the well. Cells were seeded at a density of 1000 - 1500 cells/well in a Nunc-Edge™ 96-well plate (Thermo Fisher Scientific) and growth was typically measured over 3 to 5 days. For the measurement of apoptosis induction using the MCF10A H-RAS^V12 cell line, the IncuCyte® Caspase-3/7 green dye was added to the medium in the recommended concentration at the beginning of the growth curve experiment. Apoptosis was detected by taking fluorescent images by excitation at 488 nm followed by IncuCyte® software analysis. Cell growth of the KMS-12-PE multiple myeloma cell line, which grows in suspension, was measured by manual cell counting. Cells were initially seeded at a density of 10^4 cells/well and incubated for 4 days after which the cell number was counted. For all cell lines, the same medium used for pregrowth was also used for the growth curve experiment, albeit with different glucose concentrations depending on the experimental design. With compound administration, the final concentration of DMSO never exceeded 0.1%. Typically, at least four technical repeats were included per condition.
# [3] = tested on: 2-deoxyglucose uptake in A549 lung adenocarcinoma cells; assay: 2-deoxyglucose uptake in A549 lung adenocarcinoma cells; format: cell-based, human; conditions: for Ki: read-out: Ki for 2-deoxyglucose uptake (Dixon plot)
# Method: Zero-trans glucose uptake in A549 cells was approximated by measuring the uptake of [1,2-^3H]2-deoxyglucose. For this purpose, A549 cells were pregrown in RPMI medium containing 10 mM glucose in a 24-well plate to a cell density of around 100,000 cells/well. Prior to adding radioactive label, cells were gently washed twice in Krebs-Ringer-HEPES buffer (50 mM HEPES pH 7.4, 137 mM NaCl, 4.7 mM KCl, […], 1.3 mM MgSO4 and 0.1% w/v BSA) at 30°C to remove any residual sugar. RPMI medium without sugar containing the compound intended for treatment, was added to the cells for 15 min at 37°C to allow adequate interaction of the cells with the compound. The uptake measurement was initiated by adding an equal volume of medium containing radiolabeled 2DG. After 3 - 4 min incubation at 37°C, medium was aspirated and cells were gently washed three times with ice-cold Krebs-Ringer-HEPES buffer. Cells were lysed by adding 200 µL of ice-cold 0.1 M NaOH solution and incubating the plate for 10 min at 37°C. Cell lysates were transferred to scintillation vials for subsequent scintillation counting. For blank measurements, cells were incubated with 50 µM Cytochalasin B prior to the uptake measurement.
# [4] = tested on: A549 lung adenocarcinoma cells; assay: Glucose consumption and lactate production over 8 h, A549; format: cell-based, human; conditions: A549, 25 µM, 1 mM glucose
# Method: The influence of WBC compounds on glucose consumption over a longer time period was studied in the A549 adenocarcinoma and KMS-12-PE multiple myeloma cell lines. As such, different parameters needed to be optimized depending on whether cells were adherent or in suspension. As such, A549 cells were incubated at 125,000 cells/well in a 24-well plate in 300 µL RPMI medium for 8 h. For the KMS-12-PE cell line, 100,000 cells/well were incubated in 100 µL RPMI medium in a 96-well plate for 8 h. Medium was collected, spun down and HPLC-analyzed for measuring glucose and lactate levels. Metabolite levels were corrected for cell number, which always varied little over the span of 8 h. For every condition, at least 4 technical repeats were included.
# female NMRI-nu mice = assay: In vivo toxicity and tolerability in mice; conditions: for abnormalities / toxic effects in liver and other organs at autopsy: daily i.p., toxic effects at 20 mg/kg WBC-15C and at 20 and 10 mg/kg WBC-11C, not at lower doses; for loss in body weight: daily intraperitoneal injection, 5, 10 and 20 mg/kg; for AST/ALT ratio vs vehicle: sera after 20 days, 5, 10, 20 mg/kg daily i.p.; for blood glucose level vs vehicle: sera post-mortem after 20 days, 5, 10, 20 mg/kg daily i.p.
# Method: Warbicin ® in vivo toxicity and tolerability was examined by subjecting female NMRI-nu mice (12 weeks old) to daily intraperitoneal injection of either WBC-A, WBC-15C, WBC-4C or WBC-11C. Compounds were dosed at either 5 mg/kg, 10 mg/kg or 20 mg/kg over a period of 20 days. Three mice were used per condition. To evaluate toxicity, change in body weight was registered daily. As a humane endpoint, mice that lost more than 20% of their original body weight were prematurely sacrificed. In addition, liver function was examined by measuring the ratio of the AST to ALT enzyme activities (AbCam ab105135, ab105134) in sera samples collected at the end of the experiment. Furthermore, the blood glucose level in mice sera was determined using the colorimetric GOD-PAP method. Due to their considerable hydrophobicity, the compounds were dissolved in a sterilized 1xPBS, 5% DMSO and 5% Tween-80 solution until a homogenous suspension was obtained that could be administered in a reproducible way.
# [5] = Solubility of compound stocks; format: physicochemical; conditions: 100% DMSO
# Method: WBC-A and the complete structural analog library ( Supplementary Table 2 ) were purchased from different vendors, i.e. Enamine (n = 185), Life Chemicals (n = 10), LabNetwork (n = 4) and Uorsy (n = 4). WBC compounds in general are very insoluble in aqueous solutions, challenging their solubilization. Throughout this work, WBC compounds were always stock aliquoted at 50 mM concentration in 100% DMSO. In many cases, gentle sonication and heating up to 37°C was necessary to completely solubilize the compound stocks. Whereas WBC-A, -15C, -4C and -11C could be dissolved at 50 mM, some structural analogs remained in smooth or rough suspension, regardless of the concentration. Even though it is recommended to aliquot compound stocks, no significant decrease in compound strength by repeated freeze and thaw cycles in DMSO was observed.
# [6] = tested on: MCF10A breast epithelial cell line transformed with H-RAS^V12; assay: Growth and apoptosis of MCF10A H-RAS^V12 cells (IncuCyte); format: cell-based, human; conditions: MCF10A H-RAS^V12, 1 mM glucose, 25 µM
# Method: as §1
smiles,measurement,setting,value
O=C(Oc1cccc(F)c1OC(=O)c1cccc(O)c1)c1cccc(O)c1 [WZB-117],inhibition of A549 proliferation,[1],inhibition of its proliferation
Cc1nc(NCC(=O)Nc2ccccc2Br)c2c(-c3cccs3)csc2n1 [WBC-15C],Rescue of the tps1∆ strain on 2.5 mM glucose at 100 µM,yeast tps1Δ strain,No
same,Selected from primary screen for growth inhibition of A549 cells at 50 µM,[2],Yes
same,relative potency in reducing maximal growth rate of A549 cells,[2],least potent
same,Selected for having an IC50 ratio (10 mM glucose : 1 mM glucose) of A549 growth higher than WBC-A,[2],Higher IC50 ratio and confirmed
same,type of inhibition of 2-deoxyglucose uptake (Lineweaver-Burk),[3],competitive
same,Ki,[3],33.8 µM
same,inhibition of glucose consumption and lactate production,[4],inhibited glucose consumption and lactate production
same,abnormalities / toxic effects in liver and other organs at autopsy,female NMRI-nu mice; 20 days,toxic effects were seen in the liver and other organs
same,adipose tissue at autopsy,"female NMRI-nu mice; nude mice, daily i.p., 5, 10 and 20 mg/kg, 20 days, visual inspection vs vehicle",adipose tissue was also observed in between the intestines
same,loss in body weight,"female NMRI-nu mice; nude mice, 20 days",no significant loss in body weight
same,AST/ALT ratio vs vehicle,female NMRI-nu mice,No significant difference
same,blood glucose level vs vehicle,female NMRI-nu mice,No significant difference
same,concentration at which compound could be dissolved,[5],≥ 50000 µM
Cc1nc(NCC(=O)NCc2ccco2)c2c(-c3ccccc3)csc2n1 [WBC-4C],Rescue of the tps1∆ strain on 2.5 mM glucose at 100 µM,yeast tps1Δ strain,No
same,Selected from primary screen for growth inhibition of A549 cells at 50 µM,[2],Yes
same,relative potency in reducing maximal growth rate of A549 cells,[2],intermediate potency
same,Selected for having an IC50 ratio (10 mM glucose : 1 mM glucose) of A549 growth higher than WBC-A,[2],Higher IC50 ratio and confirmed
same,type of inhibition of 2-deoxyglucose uptake (Lineweaver-Burk),[3],noncompetitive
same,K'i for 2-deoxyglucose uptake,[3]; Dixon plot (Ki = K'i) or Cornish-Bowden plot (WBC-11C),26.75 µM
same,Ki,[3],26.8 µM
same,inhibition of glucose consumption and lactate production,[4],inhibited glucose consumption and lactate production
same,inhibition of proliferation,[6],highest potency
same,abnormalities / toxic effects in liver and other organs at autopsy,female NMRI-nu mice; 20 days,No other abnormalities
same,loss in body weight,"female NMRI-nu mice; nude mice, 20 days",one single mouse treated with 20 mg/kg WBC-4C that was sacrificed at day 19 because of 20% weight loss
same,AST/ALT ratio vs vehicle,female NMRI-nu mice,No significant difference
same,blood glucose level vs vehicle,female NMRI-nu mice,No significant difference
same,concentration at which compound could be dissolved,[5],≥ 50000 µM
